Blank lines part the entries; values can stand above or below the compound they belong to.
Columns and labels:
PDE10 from pig striatum = PDE10 from pig striatum (Sus scrofa, UniProt A0A287B941); assay: Inhibition of PDE10 from pig striatum ([3H]-cAMP SPA); format: biochemical; settings: for IC50: pig striatum preparation, 0.1 μM [3H]-cAMP, 37° C., 30 minutes
Experimental: (§1) Phosphodiesterase isoenzyme 10 (PDE10) activity was determined in preparations of rat, pig and guinea pig striatum respectively. Striatum from male Wistar rats (180-200 g), male hybrid pigs (150 kg) and male guinea pigs (CRL (HA), 500 g) respectively were collected and frozen at −70° C.
(§2) For the enzymatic testing of PDE10 activity 0.5 g of the isolated and frozen striatum was homogenised in 10 ml 50 mM Tris/Mg-buffer at 4° C. and centrifuged for one hour at 100000 g.
(§3) Nonspecific activity was tested without the enzyme. […] For determination of IC50 values the Hill-plot, 2-parameter-model, was used.

[1] = test system: MK-801-induced hyperactivity and stereotyped sniffing; assay: MK-801-induced psychosis (hyperactivity and stereotyped sniffing); format: in vivo, rat; settings: p.o., 30 min before test (Example 30: 60 min), female Wistar rats, MK-801 0.1 mg/kg i.p. 10 min before, vs MK-801 control; for dose significantly reversing MK-801-induced hyperactivity: activity recorded 1 h; for dose significantly reversing MK-801-induced stereotyped sniffing: scored 1 h
Experimental: Female Wistar rats (Crl: (WI) BR, Charles River, Sulzfeld, Germany) weighing 150 to 180 g were used for the MK-801-induced psychosis. Animals were housed under standard conditions in groups of five on a 12 h light/dark cycle (light on at 0600 h) with ad libitum access to food (Pellets, ssniff M/R 15, Spezialdiät GmbH, Soest/Westfalen) and
Hydroxyethylcellulose was solved in distilled water.
MK-801 was solved in saline so that an administration volume of 0.5 ml/100 g was reached. The suspensions and solution were placed on a magnetic stirrer before and during dosing procedures.
The behaviour induced by the NMDA antagonist MK-801 is generally accepted as a rat model of psychosis. MK-801 induces stereotyped sniffing, hyperactivity and ataxia in rats after intraperitoneal administration.
Locomotor activity of the rats was recorded by the MotiTest Apparatus (TSE, Bad Homburg, Germany). The test area consisted of a squared arena (45×45 cm) with protective plexiglass walls (20 cm of height) where rats could freely move. Horizontal movements were recorded by 32 infrared photocells arranged along the bottom of each wall of the arena. The activity [sec] was measured by the computer program “ActiMot” (TSE, Bad Homburg, Germany).
Stereotyped sniffing was scored by the experimenter every five minutes for one hour (12 intervals) according to the method described by Andiné et al. (1999). The scores of the 12 intervals were summed up at the end of the recording time.
The day of experiment the female rats were placed in the laboratory and received the test compound or vehicle at the appropriate time prior to test. MK-801 0.1 mg/kg was intraperitoneally administered 10 minutes prior to test.
At the beginning of the test the rats were placed in the centre of the squared arena of the MotiTest apparatus. Behaviour of the rats was recorded for one hour. After each run animals were removed and the boxes thoroughly cleaned and dried.
Results were analysed by one way analysis of variance (ANOVA). Tukey test was used for individual comparison. P<0.05 was regarded as significant.

[2] = target: PDE10 from guinea pig striatum (Cavia porcellus, UniProt A0A286XN47); assay: Inhibition of PDE10 from guinea pig striatum ([3H]-cAMP SPA); format: biochemical; settings: guinea pig striatum preparation; 0.1 μM [3H]-cAMP; 37° C., 30 minutes
PDE10 from guinea pig striatum, sequence (A0A286XN47 1-773): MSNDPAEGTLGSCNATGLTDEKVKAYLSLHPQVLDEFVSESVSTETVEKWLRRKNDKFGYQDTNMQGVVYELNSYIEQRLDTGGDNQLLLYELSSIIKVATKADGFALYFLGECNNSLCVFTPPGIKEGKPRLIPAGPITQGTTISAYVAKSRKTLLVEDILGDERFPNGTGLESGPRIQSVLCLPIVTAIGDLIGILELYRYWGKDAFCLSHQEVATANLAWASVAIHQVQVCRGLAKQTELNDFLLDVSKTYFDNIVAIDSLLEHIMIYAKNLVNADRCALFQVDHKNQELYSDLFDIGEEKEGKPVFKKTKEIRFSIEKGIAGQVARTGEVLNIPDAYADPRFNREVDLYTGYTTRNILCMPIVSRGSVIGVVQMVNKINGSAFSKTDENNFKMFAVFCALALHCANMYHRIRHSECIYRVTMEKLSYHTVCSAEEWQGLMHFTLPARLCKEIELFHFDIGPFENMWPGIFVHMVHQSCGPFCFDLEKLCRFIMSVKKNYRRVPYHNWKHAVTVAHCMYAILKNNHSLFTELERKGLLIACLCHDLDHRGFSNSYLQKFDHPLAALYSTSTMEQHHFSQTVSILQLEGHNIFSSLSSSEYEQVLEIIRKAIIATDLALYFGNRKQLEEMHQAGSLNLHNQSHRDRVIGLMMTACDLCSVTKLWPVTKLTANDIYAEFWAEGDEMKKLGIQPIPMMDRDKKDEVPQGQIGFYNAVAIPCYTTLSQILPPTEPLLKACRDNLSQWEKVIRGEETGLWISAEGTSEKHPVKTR
Experimental: as §1, §2, §3

PDE10 from rat striatum = target: T1, PDE10 from rat striatum (Rattus norvegicus, UniProt Q9QYJ6); assay: Inhibition of PDE10 from rat striatum ([3H]-cAMP SPA); format: biochemical; settings: substrate of the enzyme preparation
T1 construct: from tissue; host or cells: rat striatum (male Wistar rats), homogenate fractions enriched on HiTrap Q HP
T1 sequence (Q9QYJ6 1-794): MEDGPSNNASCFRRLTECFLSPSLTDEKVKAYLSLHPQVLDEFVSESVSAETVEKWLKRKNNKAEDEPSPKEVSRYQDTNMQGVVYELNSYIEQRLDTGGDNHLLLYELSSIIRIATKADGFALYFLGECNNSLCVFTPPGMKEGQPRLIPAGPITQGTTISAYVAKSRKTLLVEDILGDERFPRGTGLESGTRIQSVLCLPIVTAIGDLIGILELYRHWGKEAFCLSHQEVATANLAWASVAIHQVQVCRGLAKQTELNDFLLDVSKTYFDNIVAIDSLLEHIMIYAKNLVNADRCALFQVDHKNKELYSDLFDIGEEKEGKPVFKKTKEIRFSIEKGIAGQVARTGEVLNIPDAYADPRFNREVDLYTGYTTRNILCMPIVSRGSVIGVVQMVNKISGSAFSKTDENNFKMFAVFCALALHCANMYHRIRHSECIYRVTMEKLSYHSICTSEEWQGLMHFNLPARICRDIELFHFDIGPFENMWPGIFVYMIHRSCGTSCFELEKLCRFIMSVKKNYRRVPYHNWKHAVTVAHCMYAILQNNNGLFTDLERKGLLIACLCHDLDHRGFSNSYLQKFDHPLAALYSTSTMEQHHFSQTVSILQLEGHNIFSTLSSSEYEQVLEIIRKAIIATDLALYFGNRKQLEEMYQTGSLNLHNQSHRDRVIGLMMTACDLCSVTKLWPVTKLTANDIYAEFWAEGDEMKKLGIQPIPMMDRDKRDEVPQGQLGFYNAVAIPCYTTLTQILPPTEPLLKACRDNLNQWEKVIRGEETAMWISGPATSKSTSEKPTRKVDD
Experimental: as §1, §2, §3

Compound: 3,4-dimethyl-8-(piperidin-1-yl)-methoxy-1-propyl-imidazo[1,5-a]pyrido[3,2-e]pyrazine [Example 55]
dose significantly reversing MK-801-induced hyperactivity [1]: 30 mg/kg
dose significantly reversing MK-801-induced stereotyped sniffing [1]: 30 mg/kg

Compound: 4-cyano-8-methoxy-3-methyl-1-ethyl-imidazo[1,5-a]pyrido[3,2-e]pyrazine [Example 30]
dose significantly reversing MK-801-induced hyperactivity [1]: ≥ 10 mg/kg
dose significantly reversing MK-801-induced stereotyped sniffing [1]: ≥ 10 mg/kg

Compound: 8-methoxy-3-methyl-1-propyl-imidazo[1,5-a]pyrido[3,2-e]pyrazine [Example 35]
dose significantly reversing MK-801-induced hyperactivity [1]: 30 mg/kg
dose significantly reversing MK-801-induced stereotyped sniffing [1]: ≥ 30 mg/kg

Compound: 8-methoxy-4-methoxycarbonylamino-3-methyl-1-propyl-imidazo[1,5-a]pyrido[3,2-e]pyrazine [Example 62]
dose significantly reversing MK-801-induced hyperactivity [1]: 5 mg/kg
dose significantly reversing MK-801-induced stereotyped sniffing [1]: 5 mg/kg

Compound: CCCOC1=C(C)CN(CC)C2=C1N=CC1=CN(OC)CN12 [Example 7, 1-ethyl-8-methoxy-3-methyl-4-propyloxy-imidazo[1,5-a]pyrido[3,2-e]pyrazine]
melting point: 78 to 81 °C

Compound: CCCN1CC(C)=C(OC(C)C)C2=C1N1CN(OC)C=C1C=N2 [Example 9, 4-isopropyloxy-8-methoxy-3-methyl-1-propyl-imidazo[1,5-a]pyrido[3,2-e]pyrazine]
melting point: 78 to 80 °C

Compound: CCCN1CC(C)=C(C)C2=C1N1CN(C)C=C1C=N2 [Example 51, 1-propyl-3,4,8-trimethyl-imidazo[1,5-a]pyrido[3,2-e]pyrazine]
melting point: 104 to 107 °C

Compound: CCCN1CC(C)=C(N(S(=O)(=O)c2ccc(C)cc2)S(=O)(=O)c2ccc(C)cc2)C2=C1N1CN(OC)C=C1C=N2 [Example 77, 4-[N,N-bis-(4-methylphenylsulfonyl)-amino]-8-methoxy-3-methyl-1-propyl-imidazo[1,5-a]pyrido[3,2-e]pyrazine]
melting point: 206 to 209 °C

Further lines, with some results ahead:

IC50 (PDE10 from pig striatum): 43 nM
Compound: 1-propyl-4,8-dimethyl-imidazo[1,5-a]pyrido[3,2-e]pyrazine [Example 53]

melting point: 113 to 116 °C
Compound: CCCN1CC=C(OC)C2=C1N1CN(OC)C=C1C=N2 [Example 2, 4,8-dimethoxy-1-propyl-imidazo[1,5-a]pyrido[3,2-e]pyrazine]

melting point: 112 to 115 °C
Compound: CCCN1CC(C)=C(SC)C2=C1N1CN(OC)C=C1C=N2 [Example 26, 8-methoxy-3-methyl-4-methylthio-1-propyl-imidazo[1,5-a]pyrido[3,2-e]pyrazine]

IC50 [2]: 18 nM
Compound: CCCc1nc(C)c2c(C#N)nc3ccc(OC)nc3n12 [Example 29, 4-cyano-8-methoxy-3-methyl-1-propyl-imidazo[1,5-a]pyrido[3,2e]pyrazine]
dose significantly reversing MK-801-induced stereotyped sniffing [1]: ≥ 5 mg/kg

melting point: 189 to 192 °C
Compound: CCN1CC(C)=C([S+](C)[O-])C2=C1N1CN(OC)C=C1C=N2 (centres unmarked) [Example 34, 1-ethyl-8-methoxy-3-methyl-4-methylsulfinyl-imidazo[1,5-a]pyrido[3,2-e]pyrazine]

melting point: 159 to 162 °C
Compound: CCN1CC(C)=CC2=C1N1CN(OC)C=C1C=N2 [Example 36, 1-ethyl-8-methoxy-3-methyl-imidazo[1,5-a]pyrido[3,2-e]pyrazine]

IC50 (PDE10 from pig striatum): 19 nM
Compound: CCCc1nc(C)c2c(NS(=O)(=O)C(F)(F)F)nc3ccc(OC)nc3n12 [Example 73, 8-methoxy-3-methyl-1-propyl-4-trifluoromethylsulfonylamino-imidazo[1,5a]pyrido[3,2-e]pyrazine]

melting point: 203 to 206 °C
Compound: CCCN1CC(C)=C(NS(=O)(=O)CCC)C2=C1N1CN(OC)C=C1C=N2 [Example 74, 8-methoxy-3-methyl-1-propyl-4-propylsulfonylamino-imidazo[1,5-a]pyrido[3,2-e]pyrazine]

melting point: 229 to 232 °C
Compound: CCCN1CC(C)=C(NS(=O)(=O)c2ccc(C)cc2)C2=C1N1CN(OC)C=C1C=N2 [Example 76, 8-methoxy-3-methyl-4-(4-methylphenylsulfonylamino)-1-propyl-imidazo[1,5-a]pyrido[3,2-e]pyrazine]

melting point: 250 to 253 °C
Compound: CON1C=C2C=NC3=C(N(CCC(F)(F)F)CC(C)=C3NS(C)(=O)=O)N2C1 [Example 78, 8-methoxy-3-methyl-1-(3,3,3-trifluoropropyl)-4-methylsulfonylamino-imidazo[1,5-a]pyrido[3,2-e]pyrazine]

melting point: 217 to 220 °C
Compound: CON1C=C2C=NC3=C(N2C1)N(c1ccccc1)CC(C)=C3NS(C)(=O)=O [Example 81, 8-methoxy-3-methyl-1-phenyl-4-methylsulfonylamino-imidazo[1,5-a]pyrido[3,2-e]pyrazine]

Km (PDE10 from rat striatum): 1.8 µM
Km (PDE10 from pig striatum; substrate of the enzyme preparation): 2.2 µM
Compound: Nc1nc2c(ncn2[C@@H]2O[C@@H]3COP(=O)(O)O[C@H]3[C@H]2O)c(=O)[nH]1 [cGMP]

— patent US7550465B2, “Pyrido[3,2-e]pyrazines, their use as inhibitors of phosphodiesterase 10, and processes for preparing them” (Elbion GmbH, priority 2006, dated 2009)
